Measured values from publication PMC8877149, “A Fungal Defensin Inhibiting Bacterial Cell-Wall Biosynthesis with Non-Hemolysis and Serum Stability” (Journal of Fungi, 2022).
Where a SMILES comes first, the peptide text is derived from it. Bridges are numbered along the chain shown (N, C = ends).

Legend:
[1] = tested on: fresh erythrocytes from ICR mice; assay: Hemolysis assay; type: cell-based, Mus musculus; conditions: 3.125 to 25 µM, 2-fold serial dilutions, in 0.9% NaCl; A570; 100% = 1% Triton X-100
Experimental: (§1) Hemolytic activity of peptides against fresh erythrocytes from ICR mice (Mus musculus) was assayed according to the standard method. Peptides were diluted with 0.9% NaCl to the indicated concentration. The percentage of hemolysis is determined as (Apep − Ablank)/(Atot − Ablank) × 100, in which “A” represents absorbance measured at 570 nm. Ablank and Apep were evaluated in the absence or presence of peptides. One hundred percent hemolysis (Atot) was obtained in the presence of 1% Triton X-100. For the stability assay, Py4 was incubated in H2O or fresh mouse serum for the indicated times at 37 °C and their residual activity was measured by the inhibition-zone assay.

[2] = tested on: Staphylococcus aureus J698; assay: Inhibition-zone assay, lethal concentration (CL); type: cell-based; conditions: S. aureus J698
Experimental: (§2) The inhibition-zone assay was used to quantify the antibacterial activity of Py4, as described previously. In brief, an overnight bacterial culture from a single colony was inoculated into fresh medium and grew to the late log-phase. A 10 μL aliquot of each culture was diluted in 6 mL pre-heated medium containing 0.8% agar. The mixture was spread on a 9-cm Petri dish, giving a depth of 1 mm. After settling, 3-mm wells were punched in the plate and then 2 μL peptide samples of different concentrations were added to each well. The agar plates were incubated overnight at indicated temperatures. A lethal concentration (CL) was calculated from a plot of d^2 against log n, where d is the diameter (in cm) and n is the amount of sample applied in the well (in nmol). The plot is linear and thus CL can be calculated from the slope (k) and the intercept (m) of this plot. The formula used here was CL = 2.93/ak10^m/k, where a is the thickness of the bacterial plate and CL is in μM.

[3] = tested on: Staphylococcus aureus CGMCC 1.89; assay: Inhibition-zone assay, lethal concentration (CL); type: cell-based
Experimental: as §2

[4] = tested on: Bacillus megaterium CGMCC 1.0459; assay: Inhibition-zone assay, lethal concentration (CL); type: cell-based
Experimental: as §2

[5] = tested on: Methicillin-resistant Staphylococcus aureus P1386; assay: Inhibition-zone assay, lethal concentration (CL); type: cell-based; conditions: methicillin-resistant S. aureus P1386
Experimental: as §2

[6] = tested on: Penicillin-resistant Staphylococcus epidermidis P1389; assay: Inhibition-zone assay, lethal concentration (CL); type: cell-based; conditions: penicillin-resistant S. epidermidis P1389
Experimental: as §2

Curtobacterium luteum = assay: Inhibition-zone assay, lethal concentration (CL); type: cell-based
Experimental: as §2

[7] = tested on: Staphylococcus aureus J685; assay: Inhibition-zone assay, lethal concentration (CL); type: cell-based; conditions: S. aureus J685
Experimental: as §2

[8] = tested on: Staphylococcus aureus J706; assay: Inhibition-zone assay, lethal concentration (CL); type: cell-based; conditions: S. aureus J706
Experimental: as §2

[9] = tested on: Methicillin-resistant Staphylococcus aureus P1374; assay: Inhibition-zone assay, lethal concentration (CL); type: cell-based; conditions: methicillin-resistant S. aureus P1374
Experimental: as §2

[10] = tested on: Methicillin-resistant coagulase negative Staphylococci P1369; assay: Inhibition-zone assay, lethal concentration (CL); type: cell-based
Experimental: as §2

[11] = tested on: Penicillin-sensitive Staphylococcus epidermidis P1111; assay: Inhibition-zone assay, lethal concentration (CL); type: cell-based; conditions: penicillin-sensitive S. epidermidis P1111
Experimental: as §2

[12] = tested on: Staphylococcus warneri CGMCC 1.2824; assay: Inhibition-zone assay, lethal concentration (CL); type: cell-based
Experimental: as §2

[13] = Serum stability assay (residual activity by inhibition-zone assay); type: in vitro ADME; conditions: undiluted fresh mouse serum, 37 °C, read-out inhibition zone on B. megaterium, 0.2 nmol/well, ns vs 0 h
Experimental: as §1

S. aureus = tested on: S. aureus; parameters: key: “+”, activity; “-“, no activity”; conditions: Figure 6, antibacterial activity; cited from earlier work
Source text: Compared with plectasin, the natural variant Py4 has two point mutations at positions 14 and 33 (Figure 1A) that are respectively located on the α-helix (Q14K) and the C-loop (G33A) (Figure 1A). These two mutations are interesting considering their mutational effects previously reported in plectasin. (1) Position 14. […] Small dots represent identical residues to plectasin. Positions showing differences in the peptides are boxed and the mutated residues relative to plectasin are colored in red. Positions involved in intramolecular epistasis are linked by one line. The arrow points to the position accounting for differential genetic backgrounds between plectasin and Py4. […] “+”, activity; “-“, no activity”. TEXT PRINTED IN THE PICTURE: Ple ...

[14] = tested on: Bacillus megaterium cells; assay: Membrane permeability assay (propidium iodide fluorescence); type: cell-based; conditions: B. megaterium in PBS pH 7.3, 1 µM propidium iodide, peptide or vancomycin at 10 × CL, exc 525 nm / em 595 nm
Experimental: The membrane permeability assay was performed according to the method previously described. Meucin-18 and Meucin-49, two known scorpion venom lytic peptides, were used as positive controls and vancomycin, a known bacterial cell-wall synthesis inhibitor without membrane-disruptive ability as a negative control. Bacillus megaterium cells in 500 μL of phosphate buffered saline (PBS) (pH 7.3) were mixed with 1 μM propidium iodide (PI) for 5 min in the dark. Fluorescence was measured with the F-4500 FL spectrophotometer (Hitachi High-Tech Science Corporation, Tokyo, Japan). Once the basal fluorescence reached a constant value, peptides or vancomycin at 10 × CL were added, and changes in fluorescence arbitrary were monitored (λexc = 525 nm; λems = 595 nm).

S. warneri cells = assay: Cytoplasmic accumulation of UDP-MurNAc-pentapeptide (UMP); type: cell-based, Staphylococcus warneri; conditions: 130 µg/mL chloramphenicol pre-treatment 15 min, Py4 0.6 µM or vancomycin 2.0 µM, 30 min
Experimental: The cytoplasmic UDP-MurNAc-pentapeptide (abbreviated as UMP) accumulation experiment was carried out according to the method previously described. In brief, S. warneri cells were grown at 37 °C to an OD600 of 0.5 in 40 mL broth medium and then the culture was supplemented with 130 μg/mL chloramphenicol to impede bacterial cell proliferation by blocking their protein synthesis. After 15 min of incubation, the culture was divided into three equal portions, and one portion was treated with Py4 (0.6 μM), the second with vancomycin (2.0 μM), and the third was used as an untreated control. UMP was extracted from the harvested cells following 30 min of incubation. UMP was identified by MALDI−TOF on MALDI−TOF/TOF Ultraflextreme^TM (Bruker Daltonics, Bremen, Germany) using 2,5-dihydroxybenzoic acid (DHB) as the matrix in the negative-reflection ion mode.

## CC[C@H](C)[C@@H]1NC(=O)[C@H](CO)NC(=O)[C@H](CCCCN)NC(=O)[C@@H]2CSSC[C@@H](C(=O)N[C@@H](Cc3ccc(O)cc3)C(=O)O)NC(=O)[C@H](CCCCN)NC(=O)[C@@H]3CSSC[C@H](NC(=O)[C@H](CCCCN)NC(=O)[C@H](CCSC)NC(=O)[C@H](CC(=O)O)NC(=O)[C@H](CC(=O)O)NC(=O)[C@H](CCC(=O)O)NC(=O)[C@H](CC(=O)O)NC(=O)[C@H](Cc4c[nH]c5ccccc45)NC(=O)[C@@H]4CCCN4C(=O)CNC(=O)[C@H](CC(N)=O)NC(=O)[C@@H](NC(=O)CNC(=O)[C@H](Cc4ccccc4)NC(=O)CN)CSSC[C@H](NC(=O)[C@H](Cc4ccc(O)cc4)NC(=O)CNC(=O)CNC(=O)[C@H](CCCCN)NC(=O)[C@H](Cc4ccc(O)cc4)NC(=O)CNC(=O)[C@H](CCCCN)NC1=O)C(=O)N[C@@H](C)C(=O)N[C@@H](CCCCN)C(=O)N[C@@H](C)C(=O)NCC(=O)N[C@@H](Cc1ccccc1)C(=O)N[C@@H](C(C)C)C(=O)N3)C(=O)N[C@@H](Cc1c[nH]cn1)C(=O)N[C@@H](CC(N)=O)C(=O)N[C@@H](Cc1c[nH]cn1)C(=O)N2 [Py4, Pyronesin4] (H-GFGCNGPWDEDDMKCHNHCKSIKGYKGGYCAKAGFVCKCY-OH; disulfide 4-30, 15-37, 19-39)
[1]
  hemolysis on mouse blood cells: no significant hemolysis
[2]
  CL (lethal concentration): 2.69 µM
[3]
  CL (lethal concentration): 1.22 µM
[4]
  CL (lethal concentration): 0.67 µM
[5]
  CL (lethal concentration): 2.51 µM
[6]
  CL (lethal concentration): 4.38 µM
Curtobacterium luteum
  CL (lethal concentration): 0.03 µM
[7]
  CL (lethal concentration): 2.69 µM
[8]
  CL (lethal concentration): 2.51 µM
[9]
  CL (lethal concentration): 2.69 µM
[10]
  CL (lethal concentration): 4.78 µM
[11]
  CL (lethal concentration): 4.03 µM
[12]
  CL (lethal concentration): 1.06 µM
[13]; 24 h
  residual antibacterial activity after incubation in serum: retained its full antibacterial activity
[13]; 48 h
  residual antibacterial activity after incubation in serum: retained its full antibacterial activity

## Plectasin (GFGCNGPWDEDDMQCHNHCKSIKGYKGGYCAKGGFVCKCY; UniProt Q53I06 56-95, looked up) [first fungal defensin found in Pseudoplectania nigrella, prototype of fungal defensin-like peptides]
S. aureus
  Activity: +

## CN[C@H](CC(C)C)C(=O)N[C@H]1C(=O)N[C@@H](CC(N)=O)C(=O)N[C@H]2C(=O)N[C@H]3C(=O)N[C@H](C(=O)N[C@H](C(=O)O)c4cc(O)cc(O)c4-c4cc3ccc4O)[C@H](O)c3ccc(c(Cl)c3)Oc3cc2cc(c3O[C@@H]2O[C@H](CO)[C@@H](O)[C@H](O)[C@H]2O[C@H]2C[C@](C)(N)[C@H](O)[C@H](C)O2)Oc2ccc(cc2Cl)[C@H]1O [vancomycin]
[14]
  membrane-disruptive activity (PI fluorescence increase): no obvious fluorescent increase
S. warneri cells
  cytoplasmic accumulation of UMP (RP-HPLC peak, MALDI-TOF identified): common emerging peak
